# From patent US8877889B2, “Tumor cell-killing peptides” (Industry-Academic Cooperation Foundation, Chosun University, priority 2009, dated 2014)
# “Also recorded” adds a separate entry of the source.
# Key:
# [1] = tested on: Isolated mouse liver mitochondria; assay: Isolated mitochondria treated with peptide, transmission electron microscopy; settings: 10 μM peptide; 1 hour at 30° C.
# Method: (D) Isolated mouse liver mitochondria were treated with buffer (NT), MTD peptide (10 μM), or MTDmt5 peptide (10 μM), and then incubated for 1 hour at 30° C. Mitochondria were harvested by centrifugation (10,000×rpm) and then processed for transmission electron microscopy. Images (upper panel) were obtained with 7,000× magnification, and the relative mitochondrial sizes (lower panel) were calculated by measuring the diameters of about 40 individual mitochondria.
# (§1) Jurkat cells or isolated mitochondria treated with MTD peptides were harvested by centrifugation and fixed with 2.5% glutaraldehyde for 2 hours followed by washing with 0.2 M sodium cacodylate buffer (pH 7.2) three times for 10-20 minutes. Fixation step was repeated overnight and washed with 0.2 M sodium cacodylate buffer three times. Samples were dehydrated with following sequential solutions 60% ethanol, 70% ethanol, 80% ethanol, 90% ethanol, 95% ethanol, and 100% ethanol twice for 20 minutes at 4° C., and then infiltrated by propylene oxide three times for 20 minutes. Samples were embedded with the mixture of propylene oxide and epon for 6 hours. Electron microscopic images were obtained using the Hitachi H-7600 electron microscope (80 kV, Hitachi, Tokyo, Japan). Mitochondria were isolated from mouse liver as previously described (1).
# NCI-H460 cells = assay: Peptide-induced cell death in NCI-H460 cells; type: cell-based; settings: 5 μM, 2 or 5 hours (FIG. 3C)
# Method: (C) NCI-H460 cells were treated with indicated peptides for 2 hours or 5 hours. % cell death was determined as described above.
# HeLa cells [2] = assay: Caspase activation, western blot of cell lysates; type: cell-based; settings: 5 μM peptide
# Method: (E) After treatment with the MTD peptide, MTDmt4, or MTDmt5 (5 μM) in HeLa cells, cell lysates were prepared at indicated times. Equal amounts of proteins were subjected to the SDS-PAGE and blotted onto PVDF membrane. After blocked with 5% nonfat milk in TBST (10 mM Tris-HCl, pH 7.5, 100 mM NaCl and 0.1% Tween-20), the membrane was probed with anti-caspase-3 (SantaCruz Biotechnology, Inc., Santa Cruz, Calif., USA), anti-caspase-8 (Cell signaling technology, Beverly, Mass., USA), anti-caspase-9 (SantaCruz Biotechnology, Inc., Santa Cruz, Calif.), anti-XIAP (Upstate Biotechnology, Dundee, United Kingdom), or anti-Bid (home-made) antibodies. Anti-actin antibody (Chemicon International, Inc., Temecula, Calif., USA) was used as equal loading control.
# HeLa cells [3] = assay: Peptide-induced cell death, counting dead and survived cells under the light microscope; type: cell-based; settings: peptides 10 μM, 20 μM, 30 μM, 10 minutes after treatment (FIG. 1B, 3A)
# Method: (B) HeLa cells were treated with DMSO or the indicated peptides in increasing doses (10 μM, 20 μM, and 30 μM). % of cell death was determined at 10 minutes after treatment by counting the dead cells and survived cells under the light microscope.
# (E) HeLa cells were transfected with substitution mutants of MTD peptide.
# HeLa cells were treated with DMSO or with the indicated peptides at increasing doses (10 μM, 20 μM, or 30 μM). % cell death was determined 10 minutes after treatment by counting the dead cells and survived cells (300 cells per sample) under the light microscope.
# (D) HeLa cells were treated with indicated amounts of MTD peptide for 1 hour, 2 hours, or 5 hours. % cell death was calculated by counting the dead cells and survived cells (200 to 500 cells per sample) under the light microscope. Data represent the means±SD of three independent experiments.
# A549 cells = assay: Peptide-induced cell death in A549 cells; type: cell-based; settings: 5 μM, 1, 2 or 5 hours (FIG. 3D)
# Method: (D) A549 cells were treated with indicated peptides for 1, 2, or 5 hours. % cell death was determined as described above.
# mPT pore = assay: Cobalt-quenched calcein assay; type: cell-based; settings: HeLa cells; within 5 minutes after treatment
# Method: (A) HeLa cells were loaded with 1 μM Calcein-AM and 2 mM cobalt for 15 minutes, and the mitochondria were stained by adding 25 μM MitoTracker for 2 minutes. The representative image of the calcein signals (green) that were overlapped with MitoTracker (Red) was shown.
# (B) Time-lapse images of calcein and MitoTracker signals from HeLa cells that were not treated (top panel) or treated (bottom panel) with MTD peptide were obtained at 10-second intervals for 5 minutes. The representative images at the indicated time points were shown.
# HeLa cells were loaded with 1 μM Calcein-AM and 2 mM cobalt in serum-free DMEM for 15 minutes, followed by adding 25 μM MitoTracker for 2 minutes to stain the mitochondria. Then, HeLa cells were briefly washed with HBSS (Hank's Buffered Salt Solution) and were treated with MTD peptide in calcium-free media containing 10% FBS (Fetal bovine serum). Time-lapse images were obtained at 10-second intervals for 10 minutes.
# HeLa cells [4] = assay: Measurement of intracellular calcium with Fluo-4-AM; type: cell-based; settings: 3 μM peptide
# Method: (A-C) HeLa cells were loaded with 3 μM Fluo-4-AM for 30 minutes and then treated with 3 μM of indicated peptides (A: MTD, B: MTDmt3, C: MTDmt5). Fluorescence images and bright-field images were obtained with the laser scanning confocal microscope at 5-second intervals for 5 minutes. Relative fluorescence intensities (F/F0) at two region-of-interests (ROI 1 and 2) were measured at 5-second intervals for 5 minutes.
# (E-G) HeLa cells were pretreated in calcium free KRB media alone (E), in KRB media with 10 μM 2-APB and 20 μM Ryanodine (F), or in KRB media with freshly made 30 μM CsA (G) for 2 hours. HeLa cells were then loaded with 3 μM Fluo-4-AM for 30 minutes and treated with 3 μM of MTD peptide. Images were obtained with the laser scanning confocal microscope at 5-second intervals for 5 minutes. Relative fluorescence intensities (F/F0) at two region-of-interests (ROI 1 and 2) were measured at 5-second intervals for 5 minutes.
# For Ca^2+ measurements in the cytosol, HeLa cells were cultured in an Lab-Tek™ Chamber glass slide and loaded with Fluo-4-AM (Fluo-4-acetoxymethyl ester) at a final concentration of 3 μM for 30 minutes, followed by washing with PBS (Phosphate buffered saline) at pH 7.4 and the addition of fresh Ca^2+-free Krebs-ringer modified buffer (KRB: 125 mM NaCl, 5 mM KCl, 1 mM Na3PO4, 1 mM MgSO4, 5.5 mM glucose, and 20 mM HEPES, pH 7.4, at 37° C.) containing the indicated peptides. Time-lapse images were obtained at 488 nm excitation with the Argon laser scanning confocal microscope (Leica TCS SP5 Microsystems, Mannheim, Germany) at 10-second intervals for 5 minutes to visualize Fluo-4-AM.
# HeLa cells [5] = assay: Live cell images and annexin V / SYTOX Green staining of dying cells; type: cell-based
# Method: (§2) (A) HeLa cells were treated with MTD peptides (10 μM), or TRAIL (100 ng/ml). Images were taken at the indicated times (upper panel). Jurkat cells were treated with MTD peptide (10 μM) for 10 minutes, cells were processed for TEM. Images were obtained with 4,000× magnification (lower panel). N: nucleus, M: mitochondrion.
# (D) HeLa cells were treated with the MTD (5 μM) peptide with or without the pretreatment of 10 μM BAPTA-AM for 2 hours. Live cell images were serially acquired at 10-second intervals for 10 minutes and shown at the indicated times.
# (A) HeLa cells were stained with FITC-conjugated Annexin V antibody at 10 minutes after DMSO or MTD treatment. Images were obtained under the confocal microscope.
# (B) HeLa cells were stained with SYTOX Green 10 minutes after DMSO or MTD treatment. Images were obtained using confocal microscope.
# HeLa cells [6] = assay: Cytochrome c release by immunofluorescence; type: cell-based; settings: HeLa cells; MTD peptide 5 μM
# Method: (B) Plasmids (control vector or Noxa WT fused to GFP) were transfected into HeLa cells. After 2 days in the presence of zVAD-fmk, cytochrome c was stained with anti-cytochrome c antibody. Arrows indicate the diffused cytochrome c staining (upper panel). The release of cytochrome c was analyzed by immunofluorescence in HeLa cells after treatment with MTD peptides (5 μM) (lower panel).
# Jurkat cells = assay: Transmission electron microscopy of peptide-treated cells; type: cell-based; settings: 10 μM for 10 minutes
# Method: as §2, §1
# HeLa cells [7] = assay: HMGB1 release into the media, western blot; type: cell-based; settings: 10 μM, 10 to 30 minutes, serum-free medium
# Method: (C) HeLa cells were treated with DMSO or MTD peptides (10 μM) for 10 minutes or 30 minutes in the serum-free culture medium. After treatment, culture mediums were collected. Proteins in the conditioned media were precipitated by 2.5 vol. of methanol and 0.1 vol. of 5M NaCl. Precipitates and cell lysates were subjected to SDS-PAGE and western blot analysis with anti-HMGB1 antibody (R&D systems, Minneapolis, Minn.).
sequence,measurement,setting,value
RRRRRRRRGRQKLLNLISKLF [MTD],morphological changes or mitochondrial size changes of isolated mitochondria,[1],did not show any morphological changes or mitochondrial size changes; also recorded: no morphological changes
same,susceptibility of cells to peptide,NCI-H460 cells,very susceptible
same,caspase activation,HeLa cells [2],not activated
same,cell death-inducing activity (% of cell death),HeLa cells [3],comparable cell death-inducing activity to NoxaBH3MTD peptide
same,susceptibility of cells to peptide,A549 cells,very resistant
same,mitochondrial calcein signals (mPT pore opening),mPT pore,significantly decreased
same,cytosolic calcium level change,HeLa cells [4],substantially increased
same,time to cytosolic calcium increase after treatment,HeLa cells [4],1 to 3 min
same,annexin V and SYTOX Green staining,HeLa cells [5]; 10 minutes after treatment,stained with annexin V and SYTOX Green
same,morphology of dying cells,"HeLa cells [5]; MTD peptide 10 μM or TRAIL 100 ng/ml (FIG. 2A, 7A, 7B)",bubble-like structures of dying cells; also recorded: swollen cytoplasmic membrane
same,cytochrome c release from the mitochondria to the cytosol,HeLa cells [6],not released; also recorded: neither cytochrome c release
same,ultrastructural changes by transmission electron microscopy,Jurkat cells,"swollen mitochondria, the enlarged nucleus and cell membrane swelling; also recorded: swelled mitochondria"
same,HMGB1 release to the media,HeLa cells [7],significantly released to the media
